Here are results for 15 molecules from PubChem BioAssay AID342 (DTP/NCI, 2004).

By T/C is commonly meant the result in the treated group divided by that in the control group, in per cent.

This assay deals with Swiss mice, Sarcoma 180 sc, mean tumor weight T/C. Put plainly: NCI In Vivo Anticancer Drug Screen. Data for tumor model Sarcoma 180 (subcutaneous) in Swiss mice. The following applies: endpoint: mean tumor weight, higher = larger tumour. The procedure, abridged: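 T/C ratio: treated over vehicle-treated controls, measuring survival or tumor size in transplanted-tumor mice.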

Where [1] appears, read: dose: 37.5 mg/kg/injection, schedule: Q01DX007 (ip), vehicle: carboxymethylcellulose (CMC).
[2] abbreviates: dose: 75.0 mg/kg/injection, schedule: Q01DX007 (ip), vehicle: carboxymethylcellulose (CMC).
The mark [3] stands for this setting: dose: 50.0 mg/kg/injection, schedule: Q01DX007 (ip), vehicle: carboxymethylcellulose (CMC).
Where [4] appears, read: dose: 100.0 mg/kg/injection, schedule: Q01DX007 (ip), vehicle: carboxymethylcellulose (CMC).

Values joined by “and” are separate entries in the source; they are usually repeats but may differ in a detail not shown here. Identical values can stand only once. Numbered stars: 1 amine (or outer) side, 2 acyl side, 3 side chain; on linkers, the order of the positions; unused ones are H or OH. Bridge positions count the residues as written; N and C are the ends. Square brackets hold non-standard residues; d marks the D form. Peptide text beside a SMILES is read from it. I, II: the chains in the order shown. * marks the point of attachment. Actinocin(9to1) = Cc1c2oc3c(C)ccc(C(=O)[*:1])c3nc-2c(C(=O)[*:2])c(N)c1=O; X1 = CC(C)C(C)C(C(=O)[*:2])N(C)[*:1]; Picolinoyl(3-OH) = O=C(c1ncccc1O)*; NMePhg = CN[CH](C(=O)O)c1ccccc1; aThr = C[C@H](O)[C@H](N)C(=O)O; Hyp = O=C(O)[CH]1C[CH](O)CN1; NMeV = CN[C@H](C(=O)O)C(C)C; Sar = CNCC(=O)O

For the molecule `CCCCCCCCCCCCCCCC[N+]1(C)CCN(SN2CC[N+](C)(CCCCCCCCCCCCCCCC)CC2)CC1`, the T/C is 55 % of control and 77 % of control (dose: 21.0 mg/kg/injection, schedule: Q#A X014 (ip), vehicle: saline); 53 % of control and 76 % of control (dose: 31.5 mg/kg/injection, schedule: Q#A X014 (ip), vehicle: saline); 65 % of control (dose: 47.5 mg/kg/injection, schedule: Q#A X014 (ip), vehicle: saline); 37 % of control (dose: 71.5 mg/kg/injection, schedule: Q#A X014 (ip), vehicle: saline).

In the case of `COC1C(OC(N)=O)C(O)C(Oc2ccc3c(O)c(NC(=O)c4ccc(O)c(CC=C(C)C)c4)c(=O)oc3c2C)OC1(C)C` (centres undefined), under “dose: 200.0 mg/kg/injection, schedule: Q01DX007 (ip), vehicle: saline”, the T/C is 102 % of control.

As for `NNc1nncc2ccccc12`, the T/C under setting [1] is 116 % of control and the T/C under setting [2] was 100 % of control.

Take `COc1ccc2c(c1O)-c1c(OC)c(OC)cc3c1[C@H](C2)[N+](C)(C)CC3`: the T/C by setting is: (dose: 2.5 mg/kg/injection, schedule: Q01DX007 (ip), vehicle: saline) 108 % of control; (dose: 5.0 mg/kg/injection, schedule: Q01DX007 (ip), vehicle: saline) 100 % of control.

Consider `Cc1ccc(N=NN(C)C)cc1`, for which the T/C is 86 % of control (dose: 9.8 mg/kg/injection, schedule: Q01DX007 (ip), vehicle: carboxymethylcellulose (CMC)); 70 % of control (dose: 14.8 mg/kg/injection, schedule: Q01DX007 (ip), vehicle: carboxymethylcellulose (CMC)); 62 % of control (dose: 15.0 mg/kg/injection, schedule: Q01DX007 (ip), vehicle: carboxymethylcellulose (CMC)); 45 % of control (dose: 16.65 mg/kg/injection, schedule: Q#A X014 (ip), vehicle: carboxymethylcellulose (CMC)); 49 % of control (dose: 22.2 mg/kg/injection, schedule: Q01DX007 (ip), vehicle: carboxymethylcellulose (CMC)); 43 % of control (dose: 25.0 mg/kg/injection, schedule: Q#A X014 (ip), vehicle: carboxymethylcellulose (CMC)). Further, the T/C (dose: 33.3 mg/kg/injection, schedule: Q01DX007 (ip), vehicle: carboxymethylcellulose (CMC)) was 60 % of control; the T/C (dose: 37.5 mg/kg/injection, schedule: Q#A X014 (ip), vehicle: carboxymethylcellulose (CMC)) is 30 % of control; the T/C (dose: 56.0 mg/kg/injection, schedule: Q#A X014 (ip), vehicle: carboxymethylcellulose (CMC)) is 14 % of control; the T/C (dose: 56.25 mg/kg/injection, schedule: Q#A X014 (ip), vehicle: methylcellulose (MC)) is 36 % of control and 38 % of control; the T/C (dose: 115.0 mg/kg/injection, schedule: Q01DX007 (ip), vehicle: carboxymethylcellulose (CMC)) was 34 % of control.

In the case of `C[C@@H]1C[C@](O)([C@@H](C)Cl)C(=O)O[C@@H]2CCN3CC=C(COC(=O)[C@]1(C)O)[C@H]23`, the T/C (dose: 25.0 mg/kg/injection, schedule: Q01DX007 (ip), vehicle: saline) is 74 % of control.

Consider `C=CCn1cnc2c(=S)nc[nH]c21`, for which the T/C (dose: 31.0 mg/kg/injection, schedule: Q01DX007 (ip), vehicle: carboxymethylcellulose (CMC)) is 86 % of control and the T/C (dose: 62.0 mg/kg/injection, schedule: Q01DX007 (ip), vehicle: carboxymethylcellulose (CMC)) is 54 % of control.

Turning to `CCCCCN(C)/N=N/c1nc[nH]c1C(N)=O`, the T/C reads like this: under setting [3], 41 % of control and 51 % of control; under setting [2], 23 % of control and 36 % of control; under setting [4], 24 % of control.

On to `NC(=O)c1ccccc1Nc1ccc([N+](=O)[O-])cc1[N+](=O)[O-]`, for which the T/C under setting [1] was 92 % of control and the T/C under setting [2] was 67 % of control.

Turning to `CC(=O)OCC(=O)[C@@]1(O)CC[C@H]2[C@@H]3C[C@H](C)C4=CC(=O)C=C[C@]4(C)[C@H]3[C@@H](O)C[C@@]21C`, the T/C by setting is: (dose: 7.5 mg/kg/injection, schedule: Q01DX007 (sc), vehicle: steriod suspending solution) 122 % of control; (dose: 10.0 mg/kg/injection, schedule: Q01DX007 (sc), vehicle: steriod suspending solution) 59 % of control; (dose: 11.3 mg/kg/injection, schedule: Q01DX007 (sc), vehicle: steriod suspending solution) 93 % of control; (dose: 20.0 mg/kg/injection, schedule: Q01DX007 (sc), vehicle: steriod suspending solution) 55 % of control; (dose: 27.0 mg/kg/injection, schedule: Q01DX007 (sc), vehicle: steriod suspending solution) 41 % of control; (dose: 40.0 mg/kg/injection, schedule: Q01DX007 (sc), vehicle: steriod suspending solution) 34 % of control. For the same molecule, the T/C reads like this: (dose: 44.4 mg/kg/injection, schedule: Q01DX007 (sc), vehicle: steriod suspending solution) 26 % of control; (dose: 66.6 mg/kg/injection, schedule: Q01DX007 (sc), vehicle: steriod suspending solution) 39 % of control; (dose: 100.0 mg/kg/injection, schedule: Q01DX007 (sc), vehicle: steriod suspending solution) 40 % of control.

`O=C(O)C(=O)O.[U]`: the T/C by setting is: (dose: 1.5 mg/kg/injection, schedule: Q01DX007 (ip), vehicle: saline) 85 % of control; (dose: 3.0 mg/kg/injection, schedule: Q01DX007 (ip), vehicle: saline) 79 % of control; (dose: 6.0 mg/kg/injection, schedule: Q01DX007 (ip), vehicle: saline) 82 % of control; (dose: 18.5 mg/kg/injection, schedule: Q01DX007 (ip), vehicle: saline) 32 % of control; (dose: 27.8 mg/kg/injection, schedule: Q01DX007 (ip), vehicle: saline) 33 % of control and 42 % of control; (dose: 41.7 mg/kg/injection, schedule: Q01DX007 (ip), vehicle: saline) 41 % of control. The T/C is 35 % of control (dose: 62.5 mg/kg/injection, schedule: Q01DX007 (ip), vehicle: saline) and 39 % of control (dose: 93.8 mg/kg/injection, schedule: Q01DX007 (ip), vehicle: saline).

As to `CC(=O)[C@H]1CC[C@H]2[C@@H]3CCC4=CC(=O)CC[C@]4(C)[C@H]3CC[C@]12C`, the T/C was 89 % of control (dose: 125.0 mg/kg/injection, schedule: Q01DX007 (sc), vehicle: steriod suspending solution); 76 % of control (dose: 250.0 mg/kg/injection, schedule: Q01DX007 (sc), vehicle: steriod suspending solution); 61 % of control (dose: 500.0 mg/kg/injection, schedule: Q01DX007 (sc), vehicle: steriod suspending solution); 79 % of control (dose: 1000.0 mg/kg/injection, schedule: Q01DX007 (sc), vehicle: steriod suspending solution).

On to `Cc1c2oc3c(C)ccc(C(=O)N[C@@H]4C(=O)N[C@H](C(C)C)C(=O)N5CCC[C@H]5C(=O)N(C)CC(=O)N(C)[C@@H](C(C)C)C(=O)O[C@H]4C)c3nc-2c(C(=O)N[C@@H]2C(=O)N[C@H](C(C)C)C(=O)N3CCC[C@H]3C(=O)N(C)CC(=O)N(C)[C@@H](C(C)C)C(=O)O[C@H]2C)c(N)c1=O` (I: [aThr][dV]P[Sar][NMeV] / II: [aThr][dV]P[Sar][NMeV]; ester I:1-I:C, II:1-II:C; linker I:N-II:N via Actinocin(9to1)), for which the T/C reads like this: (dose: 4.0 mg/kg/injection, schedule: Q#A X014 (ip), vehicle: carboxymethylcellulose (CMC)) 105 % of control; (dose: 7.5 mg/kg/injection, schedule: Q#A X014 (ip), vehicle: carboxymethylcellulose (CMC)) 71 % of control; (dose: 12.0 mg/kg/injection, schedule: Q#A X014 (ip), vehicle: carboxymethylcellulose (CMC)) 70 % of control; (dose: 15.0 mg/kg/injection, schedule: Q#A X014 (ip), vehicle: carboxymethylcellulose (CMC)) 47 % of control and 71 % of control; (dose: 20.0 mg/kg/injection, schedule: Q#A X014 (ip), vehicle: carboxymethylcellulose (CMC)) 51 % of control; (dose: 30.0 mg/kg/injection, schedule: Q#A X014 (ip), vehicle: carboxymethylcellulose (CMC)) 13 % of control and 24 % of control.

For `N#[N+]c1nc[nH]c1C(N)=O`, the T/C reads like this: (dose: 0.62 mg/kg/injection, schedule: Q#A X014 (ip), vehicle: methylcellulose (MC)) 61 % of control; (dose: 1.25 mg/kg/injection, schedule: Q#A X014 (ip), vehicle: methylcellulose (MC)) 53 % of control; (dose: 2.5 mg/kg/injection, schedule: Q#A X014 (ip), vehicle: methylcellulose (MC)) 55 % of control.

With `CC(C)CC1NC(=O)C(NC(=O)c2ncccc2O)C(C)OC(=O)C(c2ccccc2)N(C)C(=O)C(C)NC(=O)C(C(C)C(C)C)N(C)C(=O)CN(C)C(=O)C2CC(O)CN2C1=O` (centres undefined) ({Picolinoyl(3-OH)}-TL[Hyp][Sar][X1]A[NMePhg]; ester 1-C; configuration not given here), the T/C was 85 % of control (dose: 6.25 mg/kg/injection, schedule: Q01DX007 (ip), vehicle: carboxymethylcellulose (CMC)); 106 % of control (dose: 25.0 mg/kg/injection, schedule: Q01DX007 (ip), vehicle: carboxymethylcellulose (CMC)); 114 % of control under setting [3]; 67 % of control under setting [2]; 100 % of control under setting [4]; 98 % of control (dose: 200.0 mg/kg/injection, schedule: Q01DX007 (ip), vehicle: carboxymethylcellulose (CMC)).
